System: vascular smooth muscle cells
Test: 24 hour 3H-leucine protein inhibition and 3H-thymidine DNA synthesis inhibition assays
Type: cell-based
Settings: 24 hour exposure; for inhibition of DNA synthesis compared with protein synthesis: in the presence of 5% FBS
Method: The ability of various therapeutic agents to inhibit DNA synthesis and protein synthesis in vascular smooth muscle cells was tested. ^3H-leucine and ^3H-thymidine uptake and cytotoxicity assays were conducted in accordance with the following protocols.
^3H-leucine uptake: Vascular smooth muscle cells at 40,000 cells/ml were seeded in sterile 24 well plates at 1ml/well. The plates were incubated overnight at 37°C, 5% CO2, 95% air in a humidified atmosphere (saturation). Log dilutions of the therapeutic agent of interest were incubated with the vascular smooth muscle cells for 5 minutes or 24 hours. Samples of the therapeutic agents were diluted in DMEM:F-12 media (Whittaker Bioproducts, Walkersville, Maryland) with 5% fetal bovine serum (GBS, Gibco) and 5% Serum Plus® (JRH Biologicals). Following therapeutic agent incubation, the solution was aspirated, and 1ml/well of 0.5 microcurie/ml ^3H-leucine in leucine free DMEM (Dulbecco's Modified Eagle's Medium) with 5% Serum Plus® was added. The plates were re-incubated overnight at 37°C, 5% CO2 in a humidified atmosphere. The cells were visually graded using an inverted microscope using a scoring scale to determine viability and cell number. The 1 to 3 grade is based upon percent of cell viability and number compared to control wells, with 3=100%, 2=70%-100% and 1=0%-70%. A record of this scoring assisted in determining the immediate cytotoxic effect of the therapeutic agents. The media was then aspirated, and the cells were washed twice with cold 5% TCA. 400 microliters of 0.2M KaOH was added per well, and the plates were incubated for two hours at room temperature on a rotating platform. 200 microliters per well of the cell solution was transferred into plastic scintillation vials (Bio-Rad Laboratories), and 4 milliliters of Bio-Safe® II liquid scintillation fluid was added prior to vortexing. Vials were counted on a Beckman LS2600 Liquid scintillation Counter interfaced with Beckman "Data Capture" software for conversion to a Lotus 1-2-3® file and analysis using Lotus 1-2-3®.
^3H-thymidine uptake: Vascular smooth muscle cells were incubated in complete media with 5% FBS (Gibco) overnight at 37°C in a humidified, 5% CO2 environment in sterile 24 well plates. The media was aspirated from the wells and serum free media supplemented with growth factors (DMEM: F-12 basal media supplemented with growth factor cocktail catalog number I1884 which contains insulin (5 micrograms/ml), transferrin (5 micrograms/ml) and sodium selenite (5 nanograms/ml) available from Sigma Chemical, St. Louis, Missouri) was added. Cells were incubated in this media for 24 hours. For a 5 minute therapeutic agent exposure, log dilutions of the therapeutic agent were incubated with the cells in complete media. After 5 minutes and media aspiration, 1 ml/well of 1.0 microcurie/ml ^3H-thymidine dispersed in complete media was added. The 24 hour exposure involved incubation of the cells with 1 ml/well of 1.0 microcurie/ml of ^3H-thymidine dispersed in complete media and log dilutions of the therapeutic agent being tested. In both exposure trials, the cells were then incubated overnight at 37°C in a humidified, 5% CO2 environment. The cells were visually scored for viability and cell number. […] Vials were counted on a Beckman LS2800 Liquid Scintillation counter interfaced with Beckman "Data Capture" software for conversion to a Lotus 1-2-3® file and analysis using Lotus 1-2-3®.

| Structure (SMILES) | therapeutic range (area under the curve of 3H-leucine assay greater than that of 3H-thymidine assay) | inhibition of DNA synthesis compared with protein synthesis |
| --- | --- | --- |
| O=[N+]([O-])OCC(CO[N+](=O)[O-])O[N+](=O)[O-] [nitroglycerin] | showed an available therapeutic range | to a greater extent than they inhibited protein synthesis |
| CN[C@@H]1C[C@H]2O[C@@](C)([C@@H]1OC)n1c3ccccc3c3c4c(c5c6ccccc6n2c5c31)C(=O)NC4 [staurosporin] | showed an available therapeutic range | – |
| Cc1ccc(C(=O)Nc2ccc(S(=O)(=O)O)c3cc(S(=O)(=O)O)cc(S(=O)(=O)O)c23)cc1NC(=O)c1cccc(NC(=O)Nc2cccc(C(=O)Nc3cc(C(=O)Nc4ccc(S(=O)(=O)O)c5cc(S(=O)(=O)O)cc(S(=O)(=O)O)c45)ccc3C)c2)c1 [suramin] | showed an available therapeutic range | to a greater extent than they inhibited protein synthesis |

Reference: EP1826280A2 (priority 1992, dated 1994)
